# Measurements published in patent CN117567270A, “一种醇胺-壬二酸超分子离子盐及其制备和应用” (Jiangnan University, priority 2023, dated 2024).
# What was measured:
# [1] = system: Escherichia coli [大肠埃希氏菌]; test: Antibacterial challenge test (single inoculation, 28 d), Escherichia coli; type: cell-based; settings: for increase of bacterial count: 14~28 d; for sterilising effect (compared with control group): 7 d, control group: azelaic acid neutralised to pH 7.0
# [2] = system: Pseudomonas aeruginosa [铜绿假单胞菌]; test: Antibacterial challenge test (single inoculation, 28 d), Pseudomonas aeruginosa; type: cell-based; settings: for increase of bacterial count: 14~28 d; for sterilising effect (compared with control group): 7 d, control group: azelaic acid neutralised to pH 7.0
# [3] = system: Staphylococcus aureus [金黄色葡萄球菌]; test: Antibacterial challenge test (single inoculation, 28 d), Staphylococcus aureus; type: cell-based; settings: 14~28 d
# [4] = system: Escherichia coli, Pseudomonas aeruginosa and Staphylococcus aureus [大肠埃希氏菌、铜绿假单胞菌和金黄色葡萄球菌]; test: Antibacterial challenge test, overall result; type: cell-based; settings: for antibacterial challenge test passed: criterion: log decline at 14 d not less than 2.0 and no rise 14~28 d
# [5] = system: human skin stratum corneum [人体皮肤角质层]; test: Moisturising performance test (skin water content by capacitance method); type: in vivo; settings: toner with azelaic acid mass fraction 0.2%; for water content of human skin: 1 h after application; for moisturising ability (compared with control group): long time; for water loss of skin (compared with control group): longer time; for water replenishing ability (compared with control group): short time
# [6] = Storage stability of the salt and its water dilutions; type: physicochemical; settings: 3 months, undiluted and diluted 1, 5, 10, 20, 50 times with water
# [7] = High/low temperature cycling of the salt and its water dilutions; type: physicochemical; settings: 15 cycles -5~40℃; undiluted and diluted 1, 5, 10, 20, 50 times with water
# [8] = background statement; cited from earlier work
Compound,increase of bacterial count [1],sterilising effect (compared with control group) [1],increase of bacterial count [2],sterilising effect (compared with control group) [2],increase of bacterial count [3],antibacterial challenge test passed [4],short-term antibacterial effect compared with azelaic acid [4],water content of human skin [5],moisturising ability (compared with control group) [5],water loss of skin (compared with control group) [5],water replenishing ability (compared with control group) [5],precipitation of insolubles and colour change ([6]; 45℃ oven),"precipitation of insolubles and colour change ([6]; room temperature, natural light)",precipitation of insolubles and colour change [7],solubility in water [8]
"CC(C)(N)CO.O=C(O)CCCCCCCC(=O)O [实施例3, 氨甲基丙醇-壬二酸超分子离子盐]",不增加,更加优异,不增加,更加优异,不增加,通过抗菌挑战测试,优于壬二酸,明显上升,更加优异,较为缓慢,更加优异,–,–,–,–
"NCC(O)CO.NCC(O)CO.O=C(O)CCCCCCCC(=O)O [实施例2, 氨基丙二醇-壬二酸超分子离子盐]",不增加,更加优异,不增加,更加优异,不增加,通过抗菌挑战测试,优于壬二酸,明显上升,更加优异,较为缓慢,更加优异,无不溶物析出且无颜色变化,无不溶物析出且无颜色变化,无不溶物析出且无颜色变化,–
"O=C(O)CCCCCCCC(=O)O.OCCN(CCO)CCO.OCCN(CCO)CCO [实施例1, 三乙醇胺-壬二酸超分子离子盐]",不增加,更加优异,不增加,更加优异,不增加,–,优于壬二酸,明显上升,更加优异,较为缓慢,更加优异,–,–,–,–
"O=C(O)CCCCCCCC(=O)O [壬二酸, reference compound]",不增加,–,不增加,–,不增加,通过抗菌挑战测试,–,明显上升,–,–,–,–,–,–,很低
